# Measured values taken from patent EP3415164A1, “COMPOSITION COMPRISING A SPECIFIC P38A INHIBITOR AND AN AGENT THAT INDUCES CHROMOSOME INSTABILITY AND MEDICAL USES THEREOF” (Fundació Institut de Recerca Biomèdica (IRB Barcelona), priority 2017, dated 2018).
# What was measured:
# [1] = tested on: breast tumour patient-derived xenografts (PDXs); assay: Breast tumour patient-derived xenografts (PDXs) treated with taxanes and PH797804; assay type: in vivo
# [2] = tested on: PyMT-induced mammary tumours; assay: Growth, DNA damage and mitotic figures of PyMT-induced mammary tumours in treated mice; assay type: in vivo; settings: for effect on tumour growth: taxane administered alone, 20 mg/kg once a week for three weeks
# Procedure: Mouse experiments. PyMT p38αlox/lox UbCre female mice were generated by crossing p38αlox/lox mice (Ventura et al., 2007) with MMTV-PyMT, provided by William Muller (McGill University, Canada) and UbiquitinC-Cre-ERT2 mice (Ruzankina et al., 2007), being all mostly in FVB background. Mouse genotyping was performed by PCR using genomic tail DNA. Primers and conditions are available upon request. Mice were housed according to national and European Union regulations, and protocols were approved by the animal care and use committee of the Barcelona Science Park (PCB-CEEA). […] For p38α deletion, 4OHT (Sigma, H6278) was dissolved in 10% ethanol/90% corn oil (Sigma, C8267) and mice were injected intraperitoneally with 1 mg each day for five consecutive days. For chemotherapeutic treatments, mice were injected once a week with 20 mg/kg of docetaxel (Accord, 691719.0) or 20 mg/kg paclitaxel (Accord, 676253.0), for three consecutive weeks. […] Histology and immunohistochemistry. Tumours dissected from mice were fixed overnight in 10%-buffered formalin (Sigma, HT501128) and embedded in paraffin. Sections (5 µm-thick) were stained with hematoxylin and eosin (H&E). Specific antibodies were used for the following stainings: Ki67 (Novacastra, NCL), phospho-H3 (Millipore, 06-570), γ-H2AX (Millipore, 05-636). […] Apoptosis was detected by TUNEL using the "In situ Cell Death Detection Kit, Fluorescein" (Roche, 11684795910), following the manufacturer's instructions.
# [3] = combination therapy versus single treatments, around day 15, responding PDXs (TN1, TN2, Lum1, Lum2)
# [4] = PH797804 in combination with paclitaxel or docetaxel
Compound,"aneuploidy (FISH, chromosome 17 centromeric probe) ([1]; PH797804 with paclitaxel versus paclitaxel)",detrimental outcome induced by p38α inhibition ([1]; all nine PDXs),"anti-tumour response ([1]; co-administration with paclitaxel or docetaxel versus taxane alone, most cases (seven of nine PDXs))","anti-tumour response ([1]; co-administration with taxane, PDX models TN5 and Lum4)","missegregation events [1, 3]","γ-H2AX staining [1, 3]","effect on tumour growth ([1]; p38α inhibition (PH797804) alone, 15 mg/kg daily oral, most PDX models)",tumour size ([2]; PH797804 15 mg/kg daily by oral gavage in combination with paclitaxel or docetaxel),"DNA damage (γ-H2AX staining) [2, 4]","missegregation events (phospho-H3 staining) [2, 4]",effect on tumour growth [2]
CNC(=O)c1ccc(C)c(-n2c(C)cc(OCc3ccc(F)cc3F)c(Br)c2=O)c1 [PH797804],usually enhanced the aneuploidy induced by paclitaxel,never observed increased tumour growth or any other detrimental outcome,"enhanced, accelerated or prolonged the anti-tumour response observed with the taxane alone",no additional benefit was observed,increased percentage of missegregation events,increased γ-H2AX staining,mild effect on tumour growth,substantial reduction of tumour size,increased levels of DNA damage,higher number of missegregation events,–
CC(=O)O[C@@]12CO[C@@H]1C[C@H](O)[C@@]1(C)C(=O)[C@H](O)C3=C(C)[C@@H](OC(=O)[C@H](O)[C@@H](NC(=O)OC(C)(C)C)c4ccccc4)C[C@@](O)([C@@H](OC(=O)c4ccccc4)[C@H]21)C3(C)C [docetaxel],–,–,–,–,–,–,–,–,–,–,only exerted a cytostatic effect on tumour growth
CC(=O)O[C@H]1C(=O)[C@@]2(C)[C@H]([C@H](OC(=O)c3ccccc3)[C@]3(O)C[C@H](OC(=O)[C@H](O)[C@@H](NC(=O)c4ccccc4)c4ccccc4)C(C)=C1C3(C)C)[C@]1(OC(C)=O)CO[C@@H]1C[C@@H]2O [paclitaxel],–,–,–,–,–,–,–,–,–,–,only exerted a cytostatic effect on tumour growth
